US7468391B2, “Methods for treating retinoid responsive disorders using selective inhibitors of CYP26A and CYP26B” (Allergan, Inc., priority 2003, dated 2008)

Key:
CYP26A (P450RAI-1) = biological target: T1, CYP26A (P450RAI-1) (Homo sapiens, UniProt O43174); test: Cell-based inhibition of RA metabolism in CYP26A stably transfected HeLa cells; conditions: stably transfected HeLa cells, [3H]-RA, 3 hours at 37° C.; read-out: P450RAI-1 Whole cell IC50
T1 construct: expressed in transfected cells; host or cells: HeLa
T1 sequence (O43174 1-497): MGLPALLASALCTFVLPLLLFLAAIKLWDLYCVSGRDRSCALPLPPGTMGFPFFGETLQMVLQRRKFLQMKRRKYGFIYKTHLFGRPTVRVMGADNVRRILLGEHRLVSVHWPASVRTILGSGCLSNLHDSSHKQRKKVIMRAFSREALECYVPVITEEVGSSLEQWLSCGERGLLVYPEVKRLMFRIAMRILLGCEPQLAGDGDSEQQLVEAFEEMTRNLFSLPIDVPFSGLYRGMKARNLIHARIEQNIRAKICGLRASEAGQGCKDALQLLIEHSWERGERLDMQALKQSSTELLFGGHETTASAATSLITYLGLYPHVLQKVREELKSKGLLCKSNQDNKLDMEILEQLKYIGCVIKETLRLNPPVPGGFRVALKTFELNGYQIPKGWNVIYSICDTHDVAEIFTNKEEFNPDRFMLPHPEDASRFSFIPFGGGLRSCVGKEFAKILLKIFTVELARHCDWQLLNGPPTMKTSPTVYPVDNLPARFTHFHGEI
How it was run: (§1)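 Stably transfected HeLa cells (5×10^5/well) in MEM with 10% FBS and 0.05 μCi [3H]-RA, compounds at 10, 1 or 0.1 μM final, 3 h at 37° C. Retinoids extracted by modified Bligh-Dyer (methylene chloride); aqueous radioactivity counted; ID50 for 50% inhibition of RA metabolism derived from log-transformed data.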

CYP26B (P450RAI-2) = biological target: T2, CYP26B (P450RAI-2) (Homo sapiens, UniProt Q9NR63); test: Cell-based inhibition of RA metabolism in CYP26B stably transfected HeLa cells; conditions: stably transfected HeLa cells, [3H]-RA, 3 hours at 37° C.; read-out: P450RAI-2 Whole cell IC50
T2 construct: expressed in transfected cells; host or cells: HeLa
T2 sequence (Q9NR63 1-512): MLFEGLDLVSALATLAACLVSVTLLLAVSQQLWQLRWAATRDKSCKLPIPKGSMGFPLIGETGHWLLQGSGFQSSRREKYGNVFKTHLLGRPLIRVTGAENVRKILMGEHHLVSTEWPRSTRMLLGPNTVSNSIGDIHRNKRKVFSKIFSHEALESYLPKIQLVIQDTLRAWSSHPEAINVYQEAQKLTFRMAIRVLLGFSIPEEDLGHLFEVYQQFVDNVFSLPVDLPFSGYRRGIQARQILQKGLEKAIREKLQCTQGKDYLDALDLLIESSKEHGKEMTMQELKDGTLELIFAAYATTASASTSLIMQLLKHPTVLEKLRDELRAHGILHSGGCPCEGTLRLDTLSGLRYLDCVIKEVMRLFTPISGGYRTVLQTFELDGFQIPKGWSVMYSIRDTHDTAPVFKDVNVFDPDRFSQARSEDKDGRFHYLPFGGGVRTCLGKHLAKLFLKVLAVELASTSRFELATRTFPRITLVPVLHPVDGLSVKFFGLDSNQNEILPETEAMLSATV
How it was run: as §1

RAR β [1] = biological target: T3, RAR β (Homo sapiens, UniProt P10826); test: RAR β EC50/(efficacy); type: cell-based; conditions: for RAR β (EFFICACY): value in brackets of cell EC50/(EFFICACY)/Kd
T3 sequence (P10826 1-455): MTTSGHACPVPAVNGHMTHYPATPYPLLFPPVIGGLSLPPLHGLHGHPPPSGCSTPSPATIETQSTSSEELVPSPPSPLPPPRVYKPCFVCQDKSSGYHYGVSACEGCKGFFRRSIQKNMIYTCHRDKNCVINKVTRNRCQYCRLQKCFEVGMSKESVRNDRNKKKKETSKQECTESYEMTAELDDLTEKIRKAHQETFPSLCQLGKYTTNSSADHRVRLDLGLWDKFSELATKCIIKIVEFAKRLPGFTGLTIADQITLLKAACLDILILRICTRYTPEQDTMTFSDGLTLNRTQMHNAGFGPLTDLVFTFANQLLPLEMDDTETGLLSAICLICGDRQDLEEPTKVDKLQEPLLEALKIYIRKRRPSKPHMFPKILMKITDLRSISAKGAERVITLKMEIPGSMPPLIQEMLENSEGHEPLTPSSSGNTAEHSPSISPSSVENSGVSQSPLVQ

RAR γ [2] = biological target: T4, RAR γ (Homo sapiens, UniProt P13631); test: RAR γ EC50/(efficacy); type: cell-based; conditions: value in brackets of cell EC50/(EFFICACY)/Kd
T4 sequence (P13631 1-454): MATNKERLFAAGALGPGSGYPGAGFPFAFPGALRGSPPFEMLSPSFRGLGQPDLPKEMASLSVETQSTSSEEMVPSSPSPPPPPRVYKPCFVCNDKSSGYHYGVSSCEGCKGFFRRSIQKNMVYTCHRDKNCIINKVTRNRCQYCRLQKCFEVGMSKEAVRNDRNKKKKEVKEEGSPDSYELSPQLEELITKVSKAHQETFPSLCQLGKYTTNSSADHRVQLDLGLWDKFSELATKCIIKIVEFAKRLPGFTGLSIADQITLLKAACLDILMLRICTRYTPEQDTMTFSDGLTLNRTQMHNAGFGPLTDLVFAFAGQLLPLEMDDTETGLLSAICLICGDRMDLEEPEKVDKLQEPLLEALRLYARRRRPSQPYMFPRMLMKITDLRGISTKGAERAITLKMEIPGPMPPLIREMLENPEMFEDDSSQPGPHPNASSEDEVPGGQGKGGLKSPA

RAR α = biological target: T5, RAR α (Homo sapiens, UniProt P10276); test: RAR α Kd; type: binding; conditions: last item of cell EC50/(EFFICACY)/Kd
T5 sequence (P10276 1-462): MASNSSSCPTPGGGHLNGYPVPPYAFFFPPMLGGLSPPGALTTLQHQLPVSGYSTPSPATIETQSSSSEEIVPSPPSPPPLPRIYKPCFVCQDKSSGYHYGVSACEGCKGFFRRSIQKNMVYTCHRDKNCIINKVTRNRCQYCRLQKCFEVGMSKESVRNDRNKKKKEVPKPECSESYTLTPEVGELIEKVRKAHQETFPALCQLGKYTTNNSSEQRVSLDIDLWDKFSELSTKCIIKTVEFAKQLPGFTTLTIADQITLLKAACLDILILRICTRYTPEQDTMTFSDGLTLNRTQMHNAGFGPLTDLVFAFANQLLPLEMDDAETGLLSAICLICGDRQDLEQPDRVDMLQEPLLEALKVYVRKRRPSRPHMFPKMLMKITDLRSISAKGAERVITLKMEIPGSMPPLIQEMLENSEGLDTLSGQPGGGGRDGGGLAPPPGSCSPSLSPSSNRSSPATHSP

RAR β [3] = biological target: T3, RAR β; test: RAR β Kd; type: binding; conditions: last item of cell EC50/(EFFICACY)/Kd
RAR γ [4] = biological target: T4, RAR γ; test: RAR γ Kd; type: binding; conditions: last item of cell EC50/(EFFICACY)/Kd

C/C(=C\c1ccc(C#Cc2cc(C3CC3)c3c(c2)C(C)(C)CC2(CC2)O3)cc1)C(=O)O [Compound 3]
IC50 (CYP26A (P450RAI-1)): 250 nM | IC50 (CYP26B (P450RAI-2)): > 10 µM | RAR β (EFFICACY) (RAR β [1]): 15 | RAR γ (EFFICACY) (RAR γ [2]): 10 | Kd (RAR α): > 10 µM | Kd (RAR β [3]): 0.52 µM | Kd (RAR γ [4]): 6.04 µM

CCOC(=O)C1=CCC(C)(C)c2cc(C#Cc3ccc(CC(=O)O)c(F)c3)ccc21 [Compound 60, 6-(4-Carboxymethyl-3-fluoro-phenylethynyl)-4,4-dimethyl-3,4-dihydro-naphthalene-1-carboxylic acid ethyl ester]
IC50 (CYP26A (P450RAI-1)): 60 nM | IC50 (CYP26B (P450RAI-2)): 2.6 µM | RAR β (EFFICACY) (RAR β [1]): 60 | RAR γ (EFFICACY) (RAR γ [2]): 15 | Kd (RAR α): 6.32 µM | Kd (RAR β [3]): 3.96 µM | Kd (RAR γ [4]): 8.99 µM

CCOC(=O)C1CCC(C)(C)c2cc(C#Cc3ccc(CC(=O)O)cc3)c(C)cc21 (stereo not drawn) [Compound 57, 6-(4-Carboxymethyl-phenylethynyl)-4,4,7-trimethyl-1,2,3,4-tetrahydro-naphthalene-1-carboxylic acid ethyl ester]
IC50 (CYP26A (P450RAI-1)): 400 nM | RAR β (EFFICACY) (RAR β [1]): 50 | RAR γ (EFFICACY) (RAR γ [2]): 35 | Kd (RAR α): 6.03 µM | Kd (RAR β [3]): 4.98 µM | Kd (RAR γ [4]): 7.74 µM

CC1(C)CC2(CC2)Oc2c(C3CC3)cc(NC(=O)Nc3ccc(C(=O)O)cc3)cc21 [Compound 5, 4-{3-[8-Cyclopropyl-3,3-dihydro-4,4-dimethylspiro(2H-1-benzopyran-2,2′-cyclopropane)-6-yl]-ureido}-benzoic acid]
IC50 (CYP26A (P450RAI-1)): > 10000 nM | IC50 (CYP26B (P450RAI-2)): 0.45 µM | EC50 (RAR β [1]; first item of cell EC50/(EFFICACY)/Kd): 320 nM | RAR β (EFFICACY) (RAR β [1]): 55 | RAR γ (EFFICACY) (RAR γ [2]): 15 | Kd (RAR α): > 10 µM | Kd (RAR β [3]): 4.54 µM | Kd (RAR γ [4]): > 10 µM

CN(C1CC1)C1CCC(C)(C)c2cc(C#Cc3ccc(/C=C/C(=O)O)cc3)cc(C3CC3)c21 (stereo not drawn) [Compound 48, 3-{4-[4-Cyclopropyl-5-(cyclopropyl-methyl-amino)-8,8-dimethyl-5,6,7,8-tetrahydro-naphthalen-2-ylethynyl]-phenyl}-acrylic acid]
IC50 (CYP26A (P450RAI-1)): 700 nM | RAR β (EFFICACY) (RAR β [1]): 40 | RAR γ (EFFICACY) (RAR γ [2]): 25

CCC1(CC)CC(C)(C)c2cc(C#Cc3ccc(C(C)(C)C(=O)O)cc3)cc(C(C)C)c2O1 [Compound 14, 2-[4-(2,2-Diethyl-8-isopropyl-4,4-dimethyl-chroman-6-ylethynyl)-phenyl]-2-methyl-propionic acid]
IC50 (CYP26A (P450RAI-1)): 700 nM | IC50 (CYP26B (P450RAI-2)): > 10 µM | RAR β (EFFICACY) (RAR β [1]): 10 | RAR γ (EFFICACY) (RAR γ [2]): 25 | Kd (RAR α): 5.17 µM | Kd (RAR β [3]): 7.4 µM | Kd (RAR γ [4]): > 10 µM

CCOC(=O)C1=CCC(C)(C)c2cc(C#Cc3ccc(CC(=O)O)cc3)c(C)cc21 [Compound 55, 6-(4-Carboxymethyl-phenylethynyl)-4,4,7-trimethyl-3,4-dihydro-naphthalene-1-carboxylic acid ethyl ester]
IC50 (CYP26A (P450RAI-1)): 1400 nM | IC50 (CYP26B (P450RAI-2)): > 10 µM | RAR β (EFFICACY) (RAR β [1]): 35 | RAR γ (EFFICACY) (RAR γ [2]): 30 | Kd (RAR α): > 10 µM | Kd (RAR β [3]): > 10 µM | Kd (RAR γ [4]): > 10 µM

C/C(=C\c1ccc(C#Cc2cccc(CN(C)C3CC3)c2)cc1)C(=O)O [Compound 33, 3-(4-{3-[(Cyclopropyl-methyl-amino)-methyl]-phenylethynyl}-phenyl)-2-methyl-acrylic acid]
IC50 (CYP26A (P450RAI-1)): > 10000 nM | IC50 (CYP26B (P450RAI-2)): 1 µM | RAR β (EFFICACY) (RAR β [1]): 30 | RAR γ (EFFICACY) (RAR γ [2]): 10 | Kd (RAR α): 3.25 µM | Kd (RAR γ [4]): > 10 µM

CCOC(=O)C1=C(C)CC(C)(C)c2cc(C#Cc3ccc(CC(=O)O)cc3)ccc21 [Compound 58, 6-(4-Carboxymethyl-phenylethynyl)-2,4,4-trimethyl-3,4-dihydro-naphthalene-1-carboxylic acid ethyl ester]
IC50 (CYP26A (P450RAI-1)): 3500 nM | IC50 (CYP26B (P450RAI-2)): > 10 µM | RAR β (EFFICACY) (RAR β [1]): 25 | Kd (RAR α): > 10 µM | Kd (RAR β [3]): 4.61 µM | Kd (RAR γ [4]): > 10 µM

CC(C)Oc1cc(C#Cc2ccc(CC(=O)O)cc2)cc2c1C(N(C)C1CC1)CCC2(C)C (stereo not drawn) [Compound 41, {4-[5-(Cyclopropyl-methyl-amino)-4-isopropoxy-8,8-dimethyl-5,6,7,8-tetrahydro-naphthalen-2-ylethynyl]-phenyl}-acetic acid]
IC50 (CYP26A (P450RAI-1)): 16 nM | IC50 (CYP26B (P450RAI-2)): > 10 µM | RAR γ (EFFICACY) (RAR γ [2]): 30 | Kd (RAR α): > 10 µM | Kd (RAR β [3]): > 10 µM | Kd (RAR γ [4]): > 10 µM

CCOC(=O)c1cc(C#Cc2ccc(CC(=O)O)cc2)cc2c1C(N(C)C1CC1)CCC2(C)C (stereo not drawn) [Compound 24, 3-(4-Carboxymethyl-phenylethynyl)-8-(cyclopropyl-methyl-amino)-5,5-dimethyl-5,6,7,8-tetrahydro-naphthalene-1-carboxylic acid ethyl ester]
IC50 (CYP26A (P450RAI-1)): 35 nM | IC50 (CYP26B (P450RAI-2)): 5 µM | RAR β (EFFICACY) (RAR β [1]): 30 | Kd (RAR α): 8.57 µM | Kd (RAR β [3]): 7.19 µM | Kd (RAR γ [4]): 7.75 µM
